According to US9567319B2, “Compound having higher inhibitory activity on protein kinase G and preparation method thereof” (Jenkem Technology Co., Ltd., (Tianjin), priority 2014, dated 2017):
Where “and” joins values, the source holds several entries; their conditions need not be identical. Equal entries are not always repeated.

Tests used:
[1] = system: hyperalgesia induced by Freund's complete adjuvant (CFA) in rats; assay: Weight bearing test, CFA induced hyperalgesia in rats; assay type: in vivo, SD rats; conditions: for Weight Bearing Test Values (Mean ± SD), Baseline: pretreatment, n=8; for Weight Bearing Test Values (Mean ± SD), 15 min: 15 min post treatment; for Weight Bearing Test Values (Mean ± SD), 2 h: 2 h post treatment
Procedure: Compounds 46 and JK-02A were prepared according to the disclosure of US patent application No. US2008/0176920, and compound JK-02H was prepared according to Example 1. A repeat efficacy study was carried out on the same batch of animals with a single-dose treatment followed by a washing-out period. The 14 days in life studies included two stages: a single low dose treatment assessment on the 7th day and then a single high dose treatment test on the 14th day after CFA injection. On the 7th day after CFA injection, the rats were randomly assigned to respective groups using a computer generated randomization procedure based on the body weight and the baseline values of Von Frey and weight bearing test. Animals received corresponding single dose treatments (vehicle and 3 test articles) on the 7th and 14th days after CFA injection, respectively, and the effect of the test compounds were evaluated. Hyperalgesia of all the study animals was assessed following a single low dose treatment with the test articles on day 7, while a single high dose effect of the test article was evaluated on day 14. The mechanical hyperalgesia and weight bearing were measured on day 7 and day 14 after CFA injection, followed by administration of control or test articles. Von Frey filaments and weight bearing were measured on all the study animals at three time points on day 7, and four time points on day 14. An extra time point assessment was conducted on day 14, considering the strong analgesic effect of the test articles at a higher dose noticed during the test at the 3th time point. Rats distributed body weight unequally on the CFA-injected and contra lateral paws, which was measured by a weight balance changing instrument (Bio-medical, USA). The animals were tested in a box constructed to register the weight load exerted by the hind paws by means of force plates inserted in the floor. The mean weight bearing (unit in “g”) between the CFA-injected paw and the contra-lateral paw was determined in 10 seconds. The weight bearing test of all study animals was conducted at the same time intervals as the mechanical hyperalgesia test. All the results were expressed as mean±SD. One-way analysis of variance (ANOVA) followed by a multiple comparison test were applied among the groups, p<0.05 accepted as significant.

[2] = system: hyperalgesia induced by Freund's complete adjuvant (CFA) in rats; assay: Von Frey filament test, CFA induced hyperalgesia in rats; assay type: in vivo, SD rats; conditions: for Von Frey Filament Test Values (Mean ± SD), Baseline: pretreatment, n=8; for Von Frey Filament Test Values (Mean ± SD), 15 min: 15 min post treatment; for Von Frey Filament Test Values (Mean ± SD), 2 h: 2 h post treatment
Procedure: Compounds 46 and JK-02A were prepared according to the disclosure of US patent application No. US2008/0176920, and compound JK-02H was prepared according to Example 1. A repeat efficacy study was carried out on the same batch of animals with a single-dose treatment followed by a washing-out period. The 14 days in life studies included two stages: a single low dose treatment assessment on the 7th day and then a single high dose treatment test on the 14th day after CFA injection. On the 7th day after CFA injection, the rats were randomly assigned to respective groups using a computer generated randomization procedure based on the body weight and the baseline values of Von Frey and weight bearing test. Animals received corresponding single dose treatments (vehicle and 3 test articles) on the 7th and 14th days after CFA injection, respectively, and the effect of the test compounds were evaluated. Hyperalgesia of all the study animals was assessed following a single low dose treatment with the test articles on day 7, while a single high dose effect of the test article was evaluated on day 14. The mechanical hyperalgesia and weight bearing were measured on day 7 and day 14 after CFA injection, followed by administration of control or test articles. Von Frey filaments and weight bearing were measured on all the study animals at three time points on day 7, and four time points on day 14. An extra time point assessment was conducted on day 14, considering the strong analgesic effect of the test articles at a higher dose noticed during the test at the 3th time point. Mechanical hyperalgesia of the left hind paw was measured before and during the course of study in all animal groups by determining withdrawal thresholds to Von Frey filament (Bioseb, France). Increasing tensile force perpendicular to the plantar surface of the paw was applied to the filaments. The threshold for paw withdrawal was calculated by taking the average of 2-3 repeated stimuli (unit in “g”). On day 7, Von Frey Filament measurements were conducted three times, at the time points of pretreatment, 15 min and 2 hours post treatment. Following a one-week washing out period, on day 14 after CFA injection, Von Frey Filament tests were performed again four times post a single high dose administration. Rats treated with vehicle or high dose test articles were measured at the time points of pretreatment, 15 min, 2 and 5 hours post treatment. All the results were expressed as mean±SD. One-way analysis of variance (ANOVA) followed by a multiple comparison test were applied among the groups, p<0.05 accepted as significant.

[3] = day 7 after CFA, low dose groups (46 and JK-02A 10 mg/kg, JK-02H 5 mg/kg)
[4] = day 7 after CFA, single low dose i.v. (46 and JK-02A 10 mg/kg, JK-02H 5 mg/kg)
[5] = day 14 after CFA, high dose groups (46 and JK-02A 40 mg/kg, JK-02H 20 mg/kg)
[6] = day 14 after CFA, single high dose i.v. (46 and JK-02A 40 mg/kg, JK-02H 20 mg/kg)
[7] = day 14 after CFA, single high dose i.v. (46 and JK-02A 40 mg/kg, JK-02H 20 mg/kg), 5 h post treatment
[8] = individual animal, high dose i.v. (46 and JK-02A 40 mg/kg, JK-02H 20 mg/kg), hydrochloride
[9] = individual animal, low dose i.v. (46 and JK-02A 10 mg/kg, JK-02H 5 mg/kg), hydrochloride
[10] = individual animal, high dose i.v. (46 and JK-02A 40 mg/kg, JK-02H 20 mg/kg), two repeated stimuli, hydrochloride
[11] = individual animal, low dose i.v. (46 and JK-02A 10 mg/kg, JK-02H 5 mg/kg), two repeated stimuli, hydrochloride

`Cl.O=C(N[C@@H]1CNC[C@H]1NC(=O)c1ccc2cn[nH]c2c1)c1ccc(C(=O)c2c(OCCOCCO)ccc(F)c2F)cc1` [JK-02H, (3R,4R)-3-{4-[2,3-difluoro-6-(5-hydroxy-3-oxapentan-1-oxy)]benzoyl}benzamido-4-(1H-indazole-6-carboxamido)pyrrolidine hydrochloride] was tested, and the “Weight Bearing Test Values (Mean ± SD), Baseline” value [1, 3] was 48.83 ± 9.15 g, the “Weight Bearing Test Values (Mean ± SD), 15 min” value [1, 4] was 25.30 ± 7.97 g and the “Weight Bearing Test Values (Mean ± SD), 2 h” value [1, 4] was 37.43 ± 9.77 g. The “Weight Bearing Test Values (Mean ± SD), Baseline” value [1, 5] was 46.68 ± 4.82 g, the “Weight Bearing Test Values (Mean ± SD), 15 min” value [1, 6] was 28.55 ± 10.91 g and the “Weight Bearing Test Values (Mean ± SD), 2 h” value [1, 6] was 30.48 ± 7.88 g. The “Weight Bearing Test Values (Mean ± SD), 5 h” value [1, 7] was 37.58 ± 6.58 g, the “Weight Bearing Values of Individual Animal, Day 14, 15 min, Left” value [1, 8] was 59.4 g and 69.4 g and 72.7 g and 72.8 g and 23.1 g and 55.7 g and 42.0 g and 55.0 g and the “Weight Bearing Values of Individual Animal, Day 14, 15 min, Right” value [1, 8] was 82.5 g and 90.8 g and 92.9 g and 99.1 g and 77.6 g and 82.3 g and 70.4 g and 82.9 g. For the same molecule, the “Weight Bearing Values of Individual Animal, Day 14, 15 min, Δ” value [1, 8] was 23.1 g and 21.4 g and 20.2 g and 26.3 g and 54.5 g and 26.6 g and 28.4 g and 27.9 g, the “Weight Bearing Values of Individual Animal, Day 14, 2 h, Left” value [1, 8] was 75.2 g and 69.4 g and 47.2 g and 71.7 g (2×) and 76.8 g and 55.9 g and 47.9 g and the “Weight Bearing Values of Individual Animal, Day 14, 2 h, Right” value [1, 8] was 95.7 g and 104.8 g and 90.0 g and 96.8 g and 99.9 g and 93.7 g and 80.6 g and 98.1 g. For the same molecule, the “Weight Bearing Values of Individual Animal, Day 14, 2 h, Δ” value [1, 8] was 20.5 g and 35.4 g and 42.8 g and 25.1 g and 23.1 g and 37.8 g and 32.7 g and 26.4 g, the “Weight Bearing Values of Individual Animal, Day 14, 5 h, Left” value [1, 8] was 63.5 g and 62.4 g and 66.3 g and 54.9 g and 63.8 g and 57.7 g and 47.6 g and 44.0 g and the “Weight Bearing Values of Individual Animal, Day 14, 5 h, Right” value [1, 8] was 94.2 g and 111.2 g and 105.6 g and 95.6 g and 95.1 g and 88.7 g and 83.3 g and 87.1 g. For the same molecule, the “Weight Bearing Values of Individual Animal, Day 14, 5 h, Δ” value [1, 8] was 30.7 g and 48.8 g and 39.3 g and 40.7 g and 31.3 g and 31.0 g and 35.7 g and 43.1 g, the “Weight Bearing Values of Individual Animal, Day 7, 15 min, Left” value [1, 9] was 54.2 g and 73.4 g and 30.9 g and 63.3 g and 46.3 g and 67.8 g and 45.1 g and 60.6 g and the “Weight Bearing Values of Individual Animal, Day 7, 15 min, Right” value [1, 9] was 77.2 g and 99.2 g and 71.7 g and 77.8 g and 72.4 g and 85.5 g and 75.2 g and 85.0 g. For the same molecule, the “Weight Bearing Values of Individual Animal, Day 7, 15 min, Δ” value [1, 9] was 23.0 g and 25.8 g and 40.8 g and 14.5 g and 26.1 g and 17.7 g and 30.1 g and 24.4 g, the “Weight Bearing Values of Individual Animal, Day 7, 2 h, Left” value [1, 9] was 42.3 g and 29.7 g and 57.5 g and 72.9 g and 23.1 g and 37.3 g and 43.5 g and 51.9 g and the “Weight Bearing Values of Individual Animal, Day 7, 2 h, Right” value [1, 9] was 66.8 g and 74.0 g and 106.2 g and 97.7 g and 71.6 g and 77.0 g and 81.2 g and 83.1 g. For the same molecule, the “Weight Bearing Values of Individual Animal, Day 7, 2 h, Δ” value [1, 9] was 24.5 g and 44.3 g and 48.7 g and 24.8 g and 48.5 g and 39.7 g and 37.7 g and 31.2 g, the “First Baseline, Balance Left, individual animal” value ([1]; individual animal, pretreatment day 7, left (CFA-injected) hind paw, hydrochloride) was 62.6 g and 45.6 g and 51.0 g and 60.6 g and 48.8 g and 56.5 g and 38.6 g and 64.0 g and the “First Baseline, Balance Right, individual animal” value ([1]; individual animal, pretreatment day 7, right hind paw, hydrochloride) was 96.2 g (2×) and 101.1 g and 115.5 g and 89.7 g and 121.0 g and 87.7 g and 110.9 g. The “First Baseline, Balance Δ, individual animal” value ([1]; individual animal, pretreatment day 7, right minus left, hydrochloride) was 33.6 g and 50.6 g and 50.1 g and 54.9 g and 40.9 g and 64.5 g and 49.1 g and 46.9 g, the “Second Baseline, Balance Left, individual animal” value ([1]; individual animal, pretreatment day 14, left (CFA-injected) hind paw, hydrochloride) was 43.2 g and 65.0 g and 68.9 g and 61.3 g and 47.2 g and 60.6 g and 50.2 g and 51.8 g and the “Second Baseline, Balance Right, individual animal” value ([1]; individual animal, pretreatment day 14, right hind paw, hydrochloride) was 86.1 g and 110.8 g and 113.2 g and 115.1 g and 93.6 g and 102.8 g and 93.7 g and 106.3 g. For the same molecule, the “Second Baseline, Balance Δ, individual animal” value ([1]; individual animal, pretreatment day 14, right minus left, hydrochloride) was 42.9 g and 45.8 g and 44.3 g and 53.8 g and 46.4 g and 42.2 g and 43.5 g and 54.5 g, the “Von Frey Filament Test Values (Mean ± SD), Baseline” value [2, 3] was 6.76 ± 0.73 g and the “Von Frey Filament Test Values (Mean ± SD), 15 min” value [2, 4] was 9.85 ± 2.15 g. For the same molecule, the “Von Frey Filament Test Values (Mean ± SD), 2 h” value [2, 4] was 8.69 ± 1.57 g, the “Von Frey Filament Test Values (Mean ± SD), Baseline” value [2, 5] was 6.81 ± 0.70 g and the “Von Frey Filament Test Values (Mean ± SD), 15 min” value [2, 6] was 10.87 ± 1.00 g. The “Von Frey Filament Test Values (Mean ± SD), 2 h” value [2, 6] was 10.57 ± 1.76 g, the “Von Frey Filament Test Values (Mean ± SD), 5 h” value [2, 7] was 9.68 ± 1.63 g and the “Von Frey Values of Individual Animal, Day 14, 15 min” value [2, 10] was 11.6 g and 11.4 g (2×) and 9.4 g (2×) and 10.9 g and 9.7 g and 10.3 g and 10.1 g and 11.1 g and 10.8 g and 10.4 g and 12.0 g and 13.7 g and 11.7 g and 10.0 g. The “Von Frey Values of Individual Animal, Day 14, 2 h” value [2, 10] was 7.1 g and 8.9 g and 11.3 g and 10.8 g (2×) and 9.2 g and 7.2 g and 12.0 g and 9.8 g and 10.5 g and 10.3 g and 11.4 g and 11.0 g and 12.3 g and 13.0 g and 13.5 g, the “Von Frey Values of Individual Animal, Day 14, 5 h” value [2, 10] was 7.3 g and 8.9 g and 8.7 g (2×) and 9.5 g and 7.1 g and 7.4 g and 8.5 g and 11.0 g and 9.8 g and 11.3 g and 9.9 g and 11.2 g and 12.6 g and 12.1 g and 10.9 g and the “Von Frey Values of Individual Animal, Day 7, 15 min” value [2, 11] was 6.5 g and 5.5 g and 11.9 g and 13.8 g and 8.6 g and 8.5 g (2×) and 10.5 g (2×) and 11.3 g (2×) and 8.7 g and 9.3 g and 9.7 g and 11.4 g and 11.7 g. The “Von Frey Values of Individual Animal, Day 7, 2 h” value [2, 11] was 7.0 g and 6.2 g and 11.4 g and 11.2 g and 8.7 g (2×) and 9.0 g and 7.5 g (3×) and 6.5 g and 8.5 g and 10.8 g (2×) and 8.4 g and 9.4 g, the “First Baseline, Von Frey, individual animal” value ([2]; individual animal, pretreatment day 7, two repeated stimuli per animal, hydrochloride) was 4.9 g and 5.8 g (3×) and 6.7 g and 7.7 g and 6.1 g and 7.0 g and 7.1 g and 6.4 g and 7.4 g (2×) and 7.3 g (2×) and 8.0 g and 7.5 g and the “Second Baseline, Von Frey, individual animal” value ([2]; individual animal, pretreatment day 14 after washing-out, two repeated stimuli per animal, hydrochloride) was 5.2 g and 5.4 g and 8.4 g and 6.7 g and 6.6 g (2×) and 6.4 g and 7.3 g (2×) and 7.1 g and 6.8 g and 7.6 g and 7.4 g and 6.9 g and 6.2 g and 7.0 g.
